Read-outs that look alike come from different tables or passages of the source.
How the values were obtained:
[1] = tested on: 3D-organoids of HNSCC derived from patient populations; assay: Patient derived 3D-organoids chemosensitivity testing (CellTiter-Glo luminescence cell viability assay); format: cell-based; settings: for IC50: Homo sapiens, patient derived HNSCC 3D-organoids, 72 h incubation
Method: Patient Derived 3D-Organoids (PD30} and Chemosensitivity Testing Tumor samples from patients, who have undergone resection in the ENT clinic of Otto-von-Guericke University in Magdeburg, were incubated overnight in the RPM medium containing penicillin, streptomycin and amphotericin. On the following day, the tissue samples were crushed, passed through a sieve set to produce a size fraction of between […], which were then incubated on 24-well plates at 37° C. The PD30s were incubated with Salubrinal in a 384-well culture plate for 72 h (i.e. the double population doubling time}. Thereafter, the CellTiter-Glo® luminescence cell viability assay was performed. The reagent mixture was assembled according to the manufacturer's instructions. All experiments were performed three times with three repetitions

[2] = tested on: moderately differentiated laryngeal cancer cell lines (SNU-899, SNU-1066, SNU-1214); assay: MTT cell viability assay in cell culture; format: cell-based
Method: MTT Assay in Cell Culture Cell viability assays were carried out with 3 moderately differentiated laryngeal cancer cell lines (SNU-899, SNU-1066, SNU-1214}. MTT reagent stock solution was prepared by dissolving 5 mg crystal in 1 ml PBS and filter sterilization. The cell culture medium was aspirated and replaced by 100 μl fresh medium and 10 μl MTT stock solution per well. The plates were incubated at 37° C. for two hours. The supernatant was removed and 100 μl DMSO was added to each well. After 15-minute incubation at room temperature in a orbital shaker the absorption at […] was detected. All measurements were performed three times using GloMax@-Multi+Microplate Multimode Reader (Promega, Germany}. All experiments were performed three times with three repetitions.

O=C(/C=C/c1ccccc1)NC(NC(=S)Nc1cccc2cccnc12)C(Cl)(Cl)Cl (centres unmarked) [Salubrinal]
IC50 ([1]; read-out: IC50 range across samples, reduction of cell viability, range over samples): 16 to 158 µM
IC50 ([1]; read-out: average IC50, reduction of cell viability, average over samples): 56 µM
effect on cell viability in 3D-cell culture (FIG. 5) ([1]; in words): reduction of cell viability
cytotoxicity at 50 µM ([2]; effect dependent on the cell line and on the dosage, highest efficacy at 50 μM after 72 hours, read-out: reduction of the viability of the cells): 20 to 40%
effect on cell viability (FIG. 4) ([2]; in words): reduction in cell viability

From patent US11493517B2, “Eukaryotic translation initiation factors (EIFS) as novel biomarkers in head and neck squamous cell carcinoma (HNSCC)” (Otto-von-Guericke-Universität Magdeburg, priority 2020, dated 2022)
